Results reported in patent US20190343860A1 (Saint Louis University, priority 2016, published 2019).
Where two headings read alike, the source gives them in different places.

Tests used:
hA1AR [1] = target: T1, hA1AR (Homo sapiens, UniProt P30542); conditions: species h; inhibition of binding at 10 μM; tested in ref 26; cited from earlier work
T1 construct: expressed in transfected cells
T1 sequence (P30542 1-326): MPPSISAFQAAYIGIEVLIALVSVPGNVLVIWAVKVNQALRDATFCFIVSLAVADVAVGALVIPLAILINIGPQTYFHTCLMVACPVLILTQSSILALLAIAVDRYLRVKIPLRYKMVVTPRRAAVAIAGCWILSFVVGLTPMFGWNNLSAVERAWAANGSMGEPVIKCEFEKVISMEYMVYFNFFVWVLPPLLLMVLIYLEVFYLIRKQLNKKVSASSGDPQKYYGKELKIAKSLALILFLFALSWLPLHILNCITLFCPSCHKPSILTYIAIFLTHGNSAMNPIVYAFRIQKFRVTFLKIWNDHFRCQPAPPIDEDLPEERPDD

hA3AR = target: T2, hA3AR (Homo sapiens, UniProt P0DMS8); test: cAMP assay, inhibition of forskolin-stimulated cAMP in hA3AR-transfected CHO cells; format: cell-based; conditions: species h; percentage of maximal effect of 5′-N-ethylcarboxamidoadenosine 43, each at 10 μM
T2 construct: expressed in transfected cells
T2 sequence (P0DMS8 1-318): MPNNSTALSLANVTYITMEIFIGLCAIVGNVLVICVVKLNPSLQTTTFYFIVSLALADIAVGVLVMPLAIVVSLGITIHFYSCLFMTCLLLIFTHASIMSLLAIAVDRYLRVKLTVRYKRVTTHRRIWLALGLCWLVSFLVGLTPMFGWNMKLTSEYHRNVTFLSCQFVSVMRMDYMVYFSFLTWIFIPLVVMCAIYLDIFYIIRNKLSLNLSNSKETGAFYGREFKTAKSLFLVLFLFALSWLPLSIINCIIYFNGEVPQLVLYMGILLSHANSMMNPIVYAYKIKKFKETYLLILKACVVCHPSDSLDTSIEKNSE

[2] = tested on: isolated mouse liver mitochondria; test: Mitochondrial membrane potential (ΔΨm), TMRM flow cytometry of isolated mitochondria; format: biochemical; conditions: n=1
Procedure: FIG. 12. MRS5980 reduces ADP-dependent dissipation of mitochondrial membrane potential (ΔΨm). ADP (1 mM) in the presence of Complex I and II substrates reduced the ΔΨm in isolated mouse liver mitochondrial (decreased TMRM signal). The degree of dissipation ΔΨm was lessened with MRS5980 (10 μM) treatment prior to adding ADP n=1, 10,000 mitochondria counted/sample.
FIG. 13. MRS5980 reduces calcium-dependent dissipation of mitochondrial ΔΨm. The addition of Ca^2+ (0.5-15 μM) to isolated mouse liver mitochondria reduced the mitochondria ΔΨm in (decreased TMRM signal). The mitochondrial ΔΨιη was sustained with MRS5980 (10 μM) treatment. n=1, 10,000 mitochondria counted/sample.
Mitochondrial membrane potential (ΔΨm). Mitochondria from mouse & rat liver were isolated for flow cytometry as previously described. Mitochondria (57 μg) were loaded with Mitotracker DeepRed FM (50 nM) & TMRM (100 nM). Mitochondria were then treated for 5 min with MRS5980 (10 μM) or vehicle then stimulated with ADP (1 mM) or Ca^2+ (0-15 μM) for 1 min. Mitochondria (10,000 counts) were detected using Mitotracker Deep Red FM (Abs/EM 644/665 nm) signal & the ΔΨm state determined by the dynamic median fluorescence signal of TMRM using a FACSCanto II (BD Biosciences).

[3] = tested on: PNSA mitochondria (saphenous nerve explants); test: ATP production in saphenous nerve explants after direct drug application; set-up: species or system rat; conditions: 1 μM
Procedure: FIG. 14. […] Mean±SEM, n=6/group *P=0.019 vs, t-test
ATP assays. Saphenous nerves were harvested from rats 25 days after the initiation of chemotherapy treatments, then minced & teased apart as previously described. Saphenous nerve explants were transferred to MiR05 respiratory buffer & baseline ATP samples were taken after 5 min or after 15 min treatment with MRS5980 or vehicle. ADP (1 mM), glutamate (5 mM), succinate (5 mM), […] (5 mM) were added for 5 min & samples were taken for ATP. ATP levels were measured by a flash luciferin-luciferase assay (Promega Enliten ATP Assay; Promega, Madison, Wis.) & normalized to citrate synthase activity (Sigma, St Louis, Mo.) in explants homogenates.

mA1AR = target: T3, mA1AR (Mus musculus, UniProt Q60612); test: Radioligand binding, membranes of HEK293 cells stably expressing mA1AR; conditions: species m; inhibition of binding at 10 μM
T3 construct: expressed in transfected cells
T3 sequence (Q60612 1-326): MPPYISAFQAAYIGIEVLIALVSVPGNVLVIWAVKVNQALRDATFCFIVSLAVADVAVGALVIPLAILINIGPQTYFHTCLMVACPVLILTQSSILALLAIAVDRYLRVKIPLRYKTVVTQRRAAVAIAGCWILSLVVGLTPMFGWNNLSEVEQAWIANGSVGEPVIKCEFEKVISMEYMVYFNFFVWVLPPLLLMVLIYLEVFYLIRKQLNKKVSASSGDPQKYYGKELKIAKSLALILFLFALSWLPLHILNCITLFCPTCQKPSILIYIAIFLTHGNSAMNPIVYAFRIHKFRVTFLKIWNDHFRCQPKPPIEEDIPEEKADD

hA2AAR [4] = target: T4, hA2AAR (Homo sapiens, UniProt P29274); test: Radioligand binding, membranes of HEK293 cells stably expressing hA2AAR; conditions: species h; inhibition of binding at 10 μM
T4 construct: expressed in transfected cells
T4 sequence (P29274 whole entry): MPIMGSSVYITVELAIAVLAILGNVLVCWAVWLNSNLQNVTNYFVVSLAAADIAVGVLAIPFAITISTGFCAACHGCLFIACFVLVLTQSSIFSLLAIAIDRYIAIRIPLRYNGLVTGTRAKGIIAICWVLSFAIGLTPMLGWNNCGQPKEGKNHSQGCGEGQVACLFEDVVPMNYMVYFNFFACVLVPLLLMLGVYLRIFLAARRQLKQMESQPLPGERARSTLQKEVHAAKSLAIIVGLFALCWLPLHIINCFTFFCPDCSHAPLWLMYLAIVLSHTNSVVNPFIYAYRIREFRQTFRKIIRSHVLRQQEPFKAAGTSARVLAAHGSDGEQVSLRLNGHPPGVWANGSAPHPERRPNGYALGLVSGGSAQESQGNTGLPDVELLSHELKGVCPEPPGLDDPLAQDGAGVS

hA1AR [5] = target: T1, hA1AR; test: Radioligand binding, membranes of CHO cells stably expressing hA1AR; conditions: species h; inhibition of binding at 10 μM
mA3AR [6] = target: T5, mA3AR (Mus musculus, UniProt Q61618); test: cAMP assay, inhibition of forskolin-stimulated cAMP in mAR-transfected HEK cells; format: cell-based; conditions: species m; percentage of maximal effect of 1a, from concentration-effect curves
T5 construct: expressed in transfected cells
T5 sequence (Q61618 1-319): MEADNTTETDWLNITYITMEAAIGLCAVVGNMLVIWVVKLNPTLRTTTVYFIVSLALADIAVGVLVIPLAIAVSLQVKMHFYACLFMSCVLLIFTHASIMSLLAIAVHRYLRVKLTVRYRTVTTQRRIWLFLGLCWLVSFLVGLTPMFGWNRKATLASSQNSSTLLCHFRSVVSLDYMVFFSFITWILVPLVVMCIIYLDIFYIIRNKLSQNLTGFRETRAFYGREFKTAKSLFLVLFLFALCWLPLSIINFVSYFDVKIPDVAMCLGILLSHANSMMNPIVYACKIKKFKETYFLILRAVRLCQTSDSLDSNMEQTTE

mA2AAR = target: T6, mA2AAR (Mus musculus, UniProt Q60613); test: Radioligand binding, membranes of HEK293 cells stably expressing mA2AAR; conditions: species m; inhibition of binding at 10 μM
T6 construct: expressed in transfected cells
T6 sequence (Q60613 whole entry): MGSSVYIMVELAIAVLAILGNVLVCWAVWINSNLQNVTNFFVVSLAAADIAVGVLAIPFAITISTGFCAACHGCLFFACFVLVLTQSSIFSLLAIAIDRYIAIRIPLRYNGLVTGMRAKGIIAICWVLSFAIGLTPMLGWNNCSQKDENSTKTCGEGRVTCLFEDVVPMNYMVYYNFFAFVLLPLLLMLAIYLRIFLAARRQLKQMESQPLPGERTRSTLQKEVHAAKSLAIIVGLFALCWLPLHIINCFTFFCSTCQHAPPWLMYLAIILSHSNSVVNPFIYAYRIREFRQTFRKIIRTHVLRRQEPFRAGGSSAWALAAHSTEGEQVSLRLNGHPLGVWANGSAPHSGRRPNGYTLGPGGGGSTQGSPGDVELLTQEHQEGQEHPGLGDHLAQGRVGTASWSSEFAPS

[7] = tested on: intraepidermal nerve fibers (IENFs); conditions: rat, in vivo
hA2AAR [8] = target: T4, hA2AAR; conditions: species h; inhibition of binding at 10 μM; tested in ref 26; cited from earlier work
mA3AR [9] = target: T5, mA3AR; test: Radioligand binding, membranes of HEK293 cells stably expressing mA3AR; conditions: species m; inhibition of binding at 10 μM
[10] = Oxaliplatin-induced mechano-hypersensitivity (paw withdrawal threshold, von Frey); format: in vivo, rat; conditions: oxaliplatin 5 days, 10 mg/kg cumulative dose
Source text: Mean±SEM, n=6/group, ANOVA with Bonferroni comparisons. *P<0.05 vs. day 0; #P<0.05 vs. vehicle &†P<0.05 vs. Oxaliplatin.

[11] = tested on: intraepidermal nerve fibers (IENFs); test: Incidence of intraepidermal nerve fibers (IENFs) in chemotherapy-treated rats; conditions: chemotherapeutic alone; p<0.05 vs. Naive

| Structure (SMILES) | % inhibition A1 (hA1AR [1]) | % efficacy (hA3AR) [%] | % inhibition A1 (mA1AR) | % inhibition A2A (mA2AAR) | % inhibition A2A (hA2AAR [8]) | further results |
| --- | --- | --- | --- | --- | --- | --- |
| O[C@@H]1[C@H](O)[C@@H]2C[C@@H]2[C@H]1n1cnc2c(NCc3cccc(Cl)c3)nc(C#Cc3ccccc3)nc21 [Cmpd 11] | (37% ± 4%) | 13.8 ± 5.1 |  |  |  |  |
| CNC(=O)[C@@]12C[C@@H]1[C@@H](n1cnc3c(NC)nc(C#Cc4ccc(Cl)s4)nc31)[C@H](O)[C@@H]2O [MRS5980] |  |  |  |  |  | ADP-dependent dissipation of mitochondrial membrane potential (ΔΨm) ([2]; 10 μM prior to ADP (1 mM)): lessened; Calcium-dependent dissipation of mitochondrial ΔΨm ([2]; 10 μM, Ca2+ 0.5-15 μM): sustained; ATP production following stimulation of Complex I and II ([3]; explants from oxaliplatin-treated rats, day 25): reverses oxaliplatin-induced deficiencies in ATP production; ATP production following stimulation of Complex I and II ([3]; explants from vehicle-treated rats): modestly enhanced ATP production |
| CNC(=O)C12CC1C(n1cnc3c(NCc4cccc(Cl)c4)nc(C#Cc4cccc(S(=O)(=O)O)c4)nc31)C(O)C2O (stereo not drawn) [Cmpd 7] |  | 98.2 ± 6.7 | (15% ± 2%) | (1% ± 1%) |  | % inhibition A2A (hA2AAR [4]): (7% ± 6%); % inhibition A1 (hA1AR [5]): (16% ± 3%); % efficacy (mA3AR [6]): 89.3 ± 7.1% |
| O[C@@H]1[C@H](O)[C@@H]2C[C@@H]2[C@H]1n1cnc2c(NCc3cccc(Cl)c3)nc(C#Cc3cccc(Cl)c3)nc21 [Cmpd 12] |  | 4.5 ± 4.9 |  |  |  |  |
| CC(=O)O[C@H]1C(=O)[C@@]2(C)[C@H]([C@H](OC(=O)c3ccccc3)[C@]3(O)C[C@H](OC(=O)[C@H](O)[C@@H](NC(=O)c4ccccc4)c4ccccc4)C(C)=C1C3(C)C)[C@]1(OC(C)=O)CO[C@@H]1C[C@@H]2O [paclitaxel] |  |  |  |  |  | Incidence of IENFs vs. Naive rats [7]: statistically significantly fewer IENFs |
| O=S(=O)(O)c1ccc(CCNc2nc(C#Cc3ccccc3)nc3c2ncn3[C@H]2[C@H](O)[C@H](O)[C@@H]3C[C@@H]32)cc1 [Cmpd 16] |  | 7.2 | (18% ± 2%) | (1% ± 2%) |  | % inhibition A2A (hA2AAR [4]): (15% ± 3%); % inhibition A1 (hA1AR [5]): (10% ± 5%) |
| CCNc1nc(C#Cc2ccccc2Cl)nc2c1ncn2[C@H]1[C@H](O)[C@H](O)[C@@H]2C[C@@H]21 [Cmpd 10] | (25% ± 11%) | 7.0 ± 5.2 | (47% ± 8%) | (11% ± 1%) | (17% ± 6%) | % inhibition A3 (mA3AR [9]): (50% ± 9%) |
| CCNc1nc(C#Cc2ccccc2)nc2c1ncn2[C@H]1[C@H](O)[C@H](O)[C@@H]2C[C@@H]21 [Cmpd 9] | (36% ± 4%) | 0.8 ± 5.2 | (49% ± 6%) | (49% ± 2%) | (42% ± 4%) |  |
| O[C@@H]1[C@H](O)[C@@H]2C[C@@H]2[C@H]1n1cnc2c(NCc3cccc(Cl)c3)nc(C#Cc3ccc(-c4ccccc4)cc3)nc21 [Cmpd 13] | (48% ± 4%) | 3.5 ± 3.2 |  | (0%) | (12% ± 7%) |  |
| O[C@@H]1[C@H](O)[C@@H]2C[C@@H]2[C@H]1n1cnc2c(NCCc3ccccc3)nc(C#Cc3ccccc3)nc21 [Cmpd 14] | (30% ± 8%) | 4.1 ± 1.2 | (39% ± 6%) | (13% ± 2%) | (22% ± 5%) |  |
| O=C1[O][Pt]2([NH][C@@H]3CCCC[C@H]3[NH]2)[O]C1=O [oxaliplatin, reference compound] |  |  |  |  |  | Mechano-hypersensitivity (Paw Withdrawal Threshold) [10]: produces mechano-hypersensitivity; Incidence of IENFs vs. Naive rats [11]: statistically significantly fewer IENFs |
| O[C@@H]1[C@H](O)[C@@H]2C[C@@H]2[C@H]1n1cnc2c(NCC(c3ccccc3)c3ccccc3)nc(C#Cc3ccccc3Cl)nc21 [Cmpd 15] | (26% ± 4%) | 2.6 ± 1.3 | (23% ± 1%) | (16% ± %) | (22% ± 2%) | % inhibition A3 (mA3AR [9]): (54 ± 3%) |
| CNC(=O)C12CC1C(n1cnc3c(NCc4cccc(Cl)c4)nc(C#Cc4ccc(S(=O)(=O)O)cc4)nc31)C(O)C2O (stereo not drawn) [Cmpd 6] |  | 98.6 ± 5.7 |  | (14% ± 4%) |  | % inhibition A2A (hA2AAR [4]): (23% ± 3%); % efficacy (mA3AR [6]): 95.7 ± 19.1% |
| CNC(=O)C12CC1C(n1cnc3c(NCCc4ccccc4)nc(C#Cc4ccccc4)nc31)C(O)C2O (stereo not drawn) [Cmpd 17] |  | 105.3 ± 9.8 | (25% ± 5%) | (1% ± 1%) |  | % inhibition A2A (hA2AAR [4]): (32% ± 4%); % inhibition A1 (hA1AR [5]): (11% ± 3%); % efficacy (mA3AR [6]): 114.6 ± 14.6% |
| CNC(=O)[C@@]12C[C@@H]1[C@@H](n1cnc3c(NCc4cccc(Cl)c4)nc(C#Cc4ccccc4)nc31)[C@H](O)[C@@H]2O [Cmpd 5] | (20% ± 3%) | 101 ± 5.9 | (50% ± 5% | (2% ± 1%) | (27% ± 3%) |  |
| CNc1nc(C#Cc2ccccc2)nc2c1ncn2[C@H]1[C@H](O)[C@H](O)[C@@H]2C[C@@H]21 [Cmpd 8] | (18% ± 1%) | 12.6 ± 4.0 |  | (8% ± 3%) | (18% ± 3%) |  |
